According to US20100285156A1, “COMPOSITION FOR PREVENTING AND TREATING METABOLIC DISEASES COMPRISING THE EXTRACT OF LYSIMACHIAE FOENUM-GRAECI HERBA” (BRNSCIENCE CO., LTD, priority 2007, published 2010):

Legend:
[1] = test system: DIO (Diet Induced-Obesity) mice; assay: Blood metabolic disease marker levels in diet-induced obesity (DIO) mice; format: in vivo, C57BL/6 male mice
Experimental: Seven-week-old C57BL/6 male mice (obtained from Coretec Inc.) were bred in an animal facility where breeding conditions of temperature (20±1° C.), humidity (50±10%), light/dark cycle (12 hours), light intensity (150 to 300 Lux), and ventilation (10 to 20 times/hr) were maintained. Solid feed (obtained from Folas International Inc.) was freely supplied to the mice, and city water was subjected to steam sterilization and then was freely fed to the mice as drinking water. After acclimation for one week, 60% Kcal solid feed (obtained from Research Diet Inc.) was supplied to the mice, and the Lysimachiae Foenum-Graeci Herba extract was orally administered to the mice for 42 days in an amount of 30, 100, and 300 mg/kg/day. Sibutramine was administered to a positive control group in an amount of 10 mg/kg/day, and 0.5% MC (methyl cellulose) was administered to a negative control group in the same amount. The mice to which the substances were administered for six weeks were fasted for one day, and then were killed using CO2 gas. Blood gathered from the mouse abdominal vena cava was put into EDTA tubes and stored in ice, and then plasma obtained by centrifugation at 3000 rpm for 10 minutes was analyzed using a biochemical auto analyzer (AU400, Olympus, Japan). Also, organs extracted from the mice were immediately frozen by putting them into liquid nitrogen, were stored in a low-temperature refrigerator (−70° C.), and were histologically analyzed.
The contents of triglycerides and cholesterol in the extracted liver tissues were also measured, the results of which are given in FIG. 2.

[2] = test system: ICR male mice given corn oil; assay: Antihyperlipidemic activity, corn oil loaded mice; format: in vivo; settings: plasma, 10 mg/kg, control drug, corn oil 1 g/kg
Experimental: Five-week-old ICR male mice (obtained from Central Lab. Animal Inc.) were bred in an animal facility where breeding conditions of temperature (20±1° C.), humidity (50±10%), light/dark cycle (12 hours), light intensity (150 to 300 Lux), and ventilation (10 to 20 times/hr) were maintained. Solid feed for laboratory animals (obtained from Cargill Agri Purina Inc.) was freely supplied to the mice, and city water was subjected to steam sterilization and then was freely fed to the mice as drinking water. After acclimation for one week, the […] Herba extract was orally administered to eight mice per group in a concentration of 100 mg/kg, and a saline was orally administered to the control group instead of the extract.

[3] = plasma, high-fat diet, 10 mg/kg/day, six weeks
[4] = positive control group, summary of Table 1

Question: Which results are given for `CC(C)CC(N(C)C)C1(c2ccc(Cl)cc2)CCC1` (stereo not shown) [Sibutramine]?
Answer: ALT (Alanine aminotransferase) [1, 3]: 64 ± 15.1 IU/L; AST (Aspartate aminotransferase) [1, 3]: 172.33 ± 58.4 IU/L; CHO (Cholesterol) [1, 3]: 187.33 ± 15 mg/dL; GLU (Glucose) [1, 3]: 182.66 ± 27.3 mg/dL; TG (Triglyceride) [1, 3]: 91.33 ± 17.0 mg/dL; ALT and glucose levels [1, 4]: meaningfully reduced; AST and cholesterol levels [1, 4]: not changed; triglyceride level [1, 4]: rather increased

Question: Which results are given for `CCCCCCCCCCC[C@@H](C[C@@H]1OC(=O)[C@H]1CCCCCC)OC(=O)[C@H](CC(C)C)NC=O` [Xenical]?
Answer: CHO (Cholesterol) [2]: 148.83 ± 8.26 mg/dL; TG (Triglyceride) [2]: 311.17 ± 45.56 mg/dL
